Results reported in patent publication US20250034586A1, “METHOD FOR EDITING BANANA GENES” (Tropic Biosciences UK Limited, priority 2021, published 2025).

How the values were obtained:
[1] = system: ACO1, Ma01_g11540; test: Trait co-editing in selected embryos (PBE #3); assay type: cell-based, banana
Procedure: (§1) We transformed ECS as described previously in Example 6, using the new co-editing plasmids detailed in Table 11 above. Embryos were regenerated as detailed previously, either on media without selection, with 25 mg/L G418, 25 μg/L CSF or 50 μg/L CSF. Initial genotyping of all plasmids tested:
(§2) • All with CsVMV-rAPOBEC1 CBE (rAPOBEC+nCas9 (D10A) PBE from Zong et al. 2017*) and nosP-NptII • pMol_0925 (sgGFP-pNOS::Kan::tOCS-pCsVMV::nCas9PBE1::tg7-Dummy-pTaU6::sg1GFP_58-pTaU6::sg2GFP_59) • pMol_0934 (sgGFP, sgALS1-pNOS::Kan::tOCS-pCsVMV::nCas9PBE1::tg7-taU6::MaALS1sg2_2021-pTaU6::sg1GFP_58-pTaU6::sg2GFP_59) • pMol_0935 (sgGFP, sgALS2-pNOS::Kan::tOCS-pCsVMV::nCas9PBE1::tg7-taU6::MaALS2sg2_2023-pTaU6::sg1GFP_58-pTaU6::sg2GFP_59) • pMol_0926 (sgPPO2, sgALS1-pNOS::Kan::tOCS-pCsVMV::nCas9PBE1::tg7-taU6::MaALS1sg2_2021-pTaU6::sg1PPO2_2961-pTaU6::sg2PPO2_2962-pTaU6::sg3PPO2_2963) • pMol_0927 (sgPPO2, sgALS1-pNOS::Kan::tOCS-pCsVMV::nCas9PBE1::tg7-taU6::MaALS1sg2_2021-pTaU6::sg3PPO2_2963-pTaU6::sg4PPO2_2964) • pMol_0928 (sgACO1, sgALS1-pNOS::Kan::tOCS-pCsVMV::nCas9PBE1::tg7-taU6::MaALS1sg2_2021-pTaU6::sg1ACO1_2965-pTaU6::sg2ACO1_2966-pTaU6::sg3ACO1_2967) • pMol_0929 (sgPPO2, sgALS2-pNOS::Kan::tOCS-pCsVMV::nCas9PBE1::tg7-taU6::MaALS2sg2_2023-pTaU6::sg1PPO2_2961-pTaU6::sg2PPO2_2962-pTaU6::sg3PPO2_2963) • pMol_0930 (sgPPO2, sgALS2-pNOS::Kan::tOCS-pCsVMV::nCas9PBE1::tg7-taU6::MaALS2sg2_2023-pTaU6::sg3PPO2_2963-pTaU6::sg4PPO2_2964) • pMol_0931 (sgACO1, sgALS2-pNOS::Kan::tOCS-pCsVMV::nCas9PBE1::tg7-taU6::MaALS2sg2_2023-pTaU6::sg1ACO1_2965-pTaU6::sg2ACO1_2966-pTaU6::sg3ACO1_2967) ECS were left to ‘recover’ after transformation for 1 week in CS+cefo 300 mg/L. We regenerated embryos in 4 different conditions: • 1. No selection • 2. Stable G418 selection (in EDM only 2-3 months) from PBE #3 only (PBE #1/2 plasmids only have mCherry, not NptII) • 3. 25 μg/L chlorsulfuron (in EDM only 2-3 months) • 4. 50 μg/L chlorsulfuron (in EDM only 2-3 months)
(§3) gDNA from embryos and plantlets was extracted and qPCR was used to test for the presence of integrated tDNA in the plant genome. Three independent qPCRs were run on each sample with different sets of primers (listed below) spanning the tDNA, ranging from the left to right border. An additional qPCR was run on an endogenous banana gene (actin) for normalisation of Ct values. All qPCRs were run on the LightCycler® 96 System (Roche) using PowerUp™ SYBR® Green Master Mix (Thermo Fisher Scientific™).
(§4) For edit validation, amplicons for each target gene (als1, als2, ppo2, aco1) were made using Q5® High-Fidelity 2× Master Mix (New England Biolabs, NEB) using reaction settings listed below. PCR products were purified using Monarch® PCR & DNA Cleanup Kit (NEB) according to manufacturer's specifications. The amplicons were after validated by Sanger sequencing.

[2] = system: PPO2, Ma07_g03540; test: Trait co-editing in selected embryos (PBE #3); assay type: cell-based, banana; details: for PPO2 edited embryos total: 16 embryos tested
Procedure: as §1, §2, §3, §4

COc1nc(C)nc(NC(=O)NS(=O)(=O)c2ccccc2Cl)n1 [CSF, chlorsulfuron]
Percentage edited ACO1 embryos ([1]; 25CSF selection): 75
ACO1 edited embryos total ([1]; 25CSF selection, 8 embryos tested): 6
Percentage edited ACO1 embryos ([1]; 50CSF selection): 100
ACO1 edited embryos total ([1]; 50CSF selection, 7 embryos tested): 7
Percentage edited PPO2 embryos ([2]; 25CSF selection): 37.5
PPO2 edited embryos total ([2]; 25CSF selection): 6
Percentage edited PPO2 embryos ([2]; 50CSF selection): 43.75
PPO2 edited embryos total ([2]; 50CSF selection): 7
